Measured values from PubChem BioAssay (NCI).
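Grown in 96-well plates, cells were treated for 48 hours with each compound at five concentrations. Insufficient inhibition: endpoint recorded as highest concentration tested. GI50 is the concentration that inhibits growth by half. At the TGI there is no net growth.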

What was measured:
Assay in all cases: growth of human tumour cells (NCI), 48 h
A498 renal = system: A498 renal
SK-OV-3 ovarian = system: SK-OV-3 ovarian
MDA-MB-468 breast = system: MDA-MB-468 breast
SN12C renal = system: SN12C renal
HCT-15 colon = system: HCT-15 colon
ACHN renal = system: ACHN renal
SNB-19 CNS = system: SNB-19 CNS
HT29 colon = system: HT29 colon
UACC-62 melanoma = system: UACC-62 melanoma
RXF 393 renal = system: RXF 393 renal
TK-10 renal = system: TK-10 renal
LOX IMVI melanoma = system: LOX IMVI melanoma
COLO 205 colon = system: COLO 205 colon
OVCAR-8 ovarian = system: OVCAR-8 ovarian
RPMI-8226 leukemia = system: RPMI-8226 leukemia
HS 578T breast = system: HS 578T breast
MOLT-4 leukemia = system: MOLT-4 leukemia
CCRF-CEM leukemia = system: CCRF-CEM leukemia
HL-60(TB) leukemia = system: HL-60(TB) leukemia
MDA-MB-435 = system: MDA-MB-435
NCI-H460 lung = system: NCI-H460 lung
T-47D breast = system: T-47D breast
BT-549 breast = system: BT-549 breast
CAKI-1 renal = system: CAKI-1 renal
SF-295 CNS = system: SF-295 CNS
MALME-3M melanoma = system: MALME-3M melanoma
A549 NSCLC = system: A549 NSCLC
K-562 leukemia = system: K-562 leukemia
HCT-116 colon = system: HCT-116 colon

O=C(Nc1ccc(I)cc1F)c1cc(-c2ccc(F)cc2F)ccc1O
TGI (A498 renal): 7.14 µM | GI50 (SK-OV-3 ovarian): 2.04 µM | TGI (SK-OV-3 ovarian): 5.55 µM | GI50 (MDA-MB-468 breast): 2.2 µM | TGI (MDA-MB-468 breast): 5.76 µM | GI50 (SN12C renal): 2.34 µM | TGI (SN12C renal): 6.88 µM | GI50 (HCT-15 colon): 3.07 µM | TGI (HCT-15 colon): 28.8 µM | GI50 (ACHN renal): 3.06 µM | TGI (ACHN renal): 11.1 µM | GI50 (SNB-19 CNS): 3.38 µM | TGI (SNB-19 CNS): > 100 µM | GI50 (HT29 colon): 3.77 µM | TGI (HT29 colon): > 100 µM | GI50 (UACC-62 melanoma): 2.32 µM | TGI (UACC-62 melanoma): 6.89 µM | GI50 (RXF 393 renal): 1.88 µM | TGI (RXF 393 renal): 5.45 µM | GI50 (TK-10 renal): 3.96 µM | TGI (TK-10 renal): 11.1 µM | GI50 (LOX IMVI melanoma): 3.21 µM | TGI (LOX IMVI melanoma): 10.9 µM | GI50 (COLO 205 colon): 1.91 µM | TGI (COLO 205 colon): 4.13 µM | GI50 (OVCAR-8 ovarian): 3.17 µM | TGI (OVCAR-8 ovarian): 32.9 µM | GI50 (RPMI-8226 leukemia): 2.1 µM | TGI (RPMI-8226 leukemia): 5.67 µM | GI50 (HS 578T breast): 2.58 µM | TGI (HS 578T breast): 7.38 µM | GI50 (MOLT-4 leukemia): 2.58 µM | TGI (MOLT-4 leukemia): 9.32 µM | GI50 (CCRF-CEM leukemia): 3.31 µM | TGI (CCRF-CEM leukemia): 17 µM | GI50 (HL-60(TB) leukemia): 1.8 µM | TGI (HL-60(TB) leukemia): 5.66 µM | GI50 (MDA-MB-435): 2.59 µM | TGI (MDA-MB-435): 7.58 µM | GI50 (NCI-H460 lung): 2.78 µM | TGI (NCI-H460 lung): 8.42 µM | GI50 (T-47D breast): 2.12 µM | TGI (T-47D breast): 6.04 µM | GI50 (BT-549 breast): 2.36 µM | TGI (BT-549 breast): 6.08 µM | GI50 (CAKI-1 renal): 1.71 µM | TGI (CAKI-1 renal): 4.83 µM | GI50 (SF-295 CNS): 2.12 µM | TGI (SF-295 CNS): 4.91 µM | GI50 (MALME-3M melanoma): 2.98 µM | TGI (MALME-3M melanoma): 7.93 µM | GI50 (A549 NSCLC): 3.09 µM | TGI (A549 NSCLC): 47.4 µM | GI50 (K-562 leukemia): 2.77 µM | TGI (K-562 leukemia): 11 µM | GI50 (HCT-116 colon): 2.8 µM | TGI (HCT-116 colon): 8.81 µM
